Laboratory results taken from publication PMC10064330, “Reversible Dual-Covalent Molecular Locking of the 14-3-3/ERRγ Protein–Protein Interaction as a Molecular Glue Drug Discovery Approach” (Journal of the American Chemical Society, 2023).

Biological target: T1, 14-3-3γ/ERRγ complex (Homo sapiens, UniProt P61981+P62508)
T1 construct: made in house; host or cells: E. coli NiCo21 (DE3)
Assay: Fluorescence anisotropy (FA): 14-3-3γ titration to fluorescein-ERRγ phosphopeptide with 100 μM compound
Type: binding
Conditions: for SF100 / stabilization (SF100) at high TCEP / stabilization of 14-3-3γ/ERRγ complex (SF100, fold): 100 μM compound; for SF100: 50 μM TCEP; for stabilization (SF100) at high TCEP: 1 mM TCEP; for stabilization of 14-3-3γ/ERRγ complex (SF100, fold): 24 h incubation; for stabilization factor SF100, Replicate 1 (Table S2) / stabilization factor SF100, Replicate 2 (Table S2) / stabilization factor SF100, Replicate 3 (Table S2) / stabilization factor SF100, Average (Table S2): KD DMSO control / apparent KD with 100 μM compound, 24 h; for stabilization factor SF100, Average (Table S2): average of three experiments
Procedure: The stabilization of the ERRγ/14-3-3γ complex by the molecular locks was assessed using a fluorescence anisotropy (FA) assay where 14-3-3γ was titrated into a fluorescently labeled ERRγ phosphopeptide in the absence or presence of a 100 μM molecular lock (Figure 2a,b); this compound concentration was selected based on a FA compound titration assay (Figure S1).
Experimental Section Biophysical Assays
14-3-3γ protein expression (FA, TSA, MS assays)
A pPROEX HTb expression vector encoding the human 14-3-3 protein gamma (14-3-3γ) with a N-terminal his6-tag was transformed by heat shock into NiCo21 (DE3) competent cells. Single colonies were cultured in 50 mL LB medium (100 µg/mL ampicillin). After overnight incubation at 37 °C, cultures were transferred to 2 L TB media (100 µg/mL ampicillin, 1 mM MgCl2) and incubated at 37 °C until an OD600 nm of 0.8 -1.2 was reached. Protein expression was then induced with 0.4 mM isopropyl-β-d-thiogalactoside (IPTG), and cultures were incubated overnight at 18 °C. Cells were harvested by centrifugation (8600 rpm, 20 minu tes, 4 °C) and resuspended in lysis buffer (50 mM Hepes, pH 8.0, 300 mM NaCl, 12.5 mM imidazole, 5 mM MgCl2, 2 mM βME) containing cOmplete™ EDTA-free Protease Inhibitor Cocktail tablets (1 tablet/100 ml lysate) and benzonase ( 5 µl/100 ml). After lysis using a C3 Emulsiflex-C3 homogenizer (Avestin), the cell lysate was cleared by centrifugation (20000 rpm, 30 minutes, 4 °C) and purified using Ni2+-affinity chromatography (Ni -NTA superflow cartridges, Qiagen). Typically two 5 mL columns (flow 5 mL/min) were use d for a 2 L culture in which the lysate was loaded on the column , washed with 10 CV wash buffer (50 mM Hepes, pH 8.0, 300 mM NaCl, 25 mM imidazole, 2 mM βME), and eluted in several fractions (2-4 CV) of elution buffer (50 mM Hepes, pH 8.0, 300 mM NaCl, 250 mM imidazole, 2 mM βME). Fractions containing the 14 -3-3 protein were combined and dialyzed into 25 mM HEPES pH 8.0, 100 mM NaCl, 10 mM MgCl2, 500 µM TCEP. Finally, the protein was concentrated to ∼60 mg/mL, analyzed Q-Tof LC/MS, and aliquots were flash-frozen for storage at −80 °C.
14-3-3σΔc C38N protein expression (Crystallography)
A pPROEX HTb expression vector encoding the human 14-3-3 protein sigma truncated after T231 (14-3-3σΔc), mutated C38N, and containing a N-terminal his6-tag was transformed by heat shock into NiCo21 (DE3) competent cells. Single colonies were cultured in 50 mL LB medium (100 µg/mL ampicillin). After overnight incubation at 37 °C, cultures were transferred to 2 L TB media (100 µg/mL ampicillin, 1 mM MgCl2) and incubated at 37 °C until an OD600 nm of 0.8-1.2 was reached. Protein expression was then induced with 0.4 mM isopropyl-β-d-thiogalactoside (IPTG), and cultures were incubated overnight at 18 °C. Cells were harvested by centrifugation (8600 rpm, 20 minutes, 4 °C) and resuspended in lysis buffer (50 mM Hepes, pH 8.0, 300 mM NaCl, 12.5 mM imidazole, 5 mM MgCl2, 2 mM βME) containing cOmplete™ EDTA-free Protease Inhibitor Cocktail tablets (1 tablet/ 100 ml lysate) and benzonase (5 µl/ 100 ml). After lysis using a C3 Emulsiflex-C3 homogenizer (Avestin), […]
chromatography (Ni-NTA superflow cartridges, Qiagen). Typically two 5 mL columns were used for a 2 L culture in which the lysate was loaded on the column , washed with 10 CV wash buffer (50 mM Hepes, pH 8.0, 300 mM NaCl, 25 mM imidazole, 2 mM βME), and eluted with several fractions (2 -4 CV) of elution buffer (50 mM Hepes, pH 8.0, 300 mM NaCl, 250 mM imidazole, 2 mM βME). Fractions containing the 14-3-3 protein were combined and dialyzed into 25 mM HEPES pH 8.0, 200 mM NaCl, 10 mM MgCl 2, 2 mM βME. In addition, 1 mg TEV was added for each 100 mg purified protein to remove the purification tag. The cleaved sample was then again loaded on a 10 mL Ni-NTA column to separate the cleaved product from the expression tag and residual uncleaved protein. The flowthrough was loaded on a Superdex 75 pg 16/60 size exc lusion column (GE Life Sciences) using […]

T1 sequence (P61981 whole entry, other chains not shown): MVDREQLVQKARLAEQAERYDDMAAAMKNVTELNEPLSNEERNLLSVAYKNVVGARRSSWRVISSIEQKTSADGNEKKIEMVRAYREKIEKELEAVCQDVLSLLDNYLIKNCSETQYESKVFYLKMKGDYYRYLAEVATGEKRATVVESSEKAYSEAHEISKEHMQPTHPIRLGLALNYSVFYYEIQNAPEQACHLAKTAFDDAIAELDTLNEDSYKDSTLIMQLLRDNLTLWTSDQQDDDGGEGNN

Compound	SF100	stabilization (SF100) at high TCEP	stabilization of 14-3-3γ/ERRγ complex (SF100, fold)	stabilization factor SF100, Replicate 1 (Table S2)	stabilization factor SF100, Replicate 2 (Table S2)	stabilization factor SF100, Replicate 3 (Table S2)	stabilization factor SF100, Average (Table S2)
CN(C)CCSSCCN(C)C(=O)c1cccc(F)c1 [compound 1, reference compound]	5	completely abolished	five-fold	5.3	3.7	4.6	4.6
CN(C)CCSSCCN(C)C(=O)c1cc(Br)cc(C=O)c1 [compound 10]	37	completely abolished		37.6	34.1	38.8	36.9
CN(C)CCSSCCN(C)C(=O)c1ccc(C=O)c(F)c1 [compound 5]		completely abolished		27.0	17.8	16.5	20.4
CN(C)CCNC(=O)c1ccc(C=O)c(F)c1 [compound 3]			1	1.0	1.0	0.9	1.0
